Measured values: patent US20170107207A1, “AMINOPYRAZOLONE DERIVATIVE” (DAIICHI SANKYO COMPANY, LIMITED, priority 2014, published 2017)

What was measured:
[1] = system: human lymphoma cell line RAMOS cells; assay: Cell growth inhibition test using RAMOS cell, ATP assay (CellTiter-Glo); assay type: cell-based; conditions: Homo sapiens, Ramos, 72 h, cultured 3 days, 50% growth inhibition concentration
In short: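 RAMOS cells seeded at 4000 cells/well with compound and cultured 3 days at 37° C, 5% CO2; viability by CellTiter-Glo luminescence. Growth rate T/C % = 100×[(B−C)/(A−C)] using day-0 and final readings; GI50 interpolated from the two concentrations bracketing 50% growth.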

[2] = target: T1, TIP48/TIP49 complex (Homo sapiens, UniProt Q9Y230+Q9Y265); assay: ATPase assay of TIP48/TIP49 complex (ADP-Glo); assay type: biochemical; conditions: concentration at which the ATPase activity was inhibited by 50%
T1 construct: made in house; host or cells: E. coli
In short: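 Compound was tested over 10 four-fold concentrations, 200 μM down to 0.0007 μM at 2% DMSO, against E. coli-derived human rTIP48/rTIP49 for 1.5 h at room temperature, pH 7.5 with ATP. ATP hydrolysis was read as ADP-Glo luminescence, normalised to complex-only and no-complex wells, then fitted to dose-response curves.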

T1 sequence (Q9Y230 whole entry): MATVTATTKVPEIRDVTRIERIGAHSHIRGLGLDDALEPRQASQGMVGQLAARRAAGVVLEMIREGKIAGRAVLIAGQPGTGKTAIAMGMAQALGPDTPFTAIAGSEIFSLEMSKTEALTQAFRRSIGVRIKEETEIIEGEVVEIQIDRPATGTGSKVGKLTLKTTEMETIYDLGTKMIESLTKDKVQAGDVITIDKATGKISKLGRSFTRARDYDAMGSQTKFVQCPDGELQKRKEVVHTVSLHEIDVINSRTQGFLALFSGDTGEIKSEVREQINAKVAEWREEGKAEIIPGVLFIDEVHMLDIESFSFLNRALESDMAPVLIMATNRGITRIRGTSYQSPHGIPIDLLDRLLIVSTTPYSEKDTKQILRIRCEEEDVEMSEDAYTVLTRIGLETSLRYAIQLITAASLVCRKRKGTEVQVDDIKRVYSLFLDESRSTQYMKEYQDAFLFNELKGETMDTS
T1 sequence (Q9Y265 whole entry): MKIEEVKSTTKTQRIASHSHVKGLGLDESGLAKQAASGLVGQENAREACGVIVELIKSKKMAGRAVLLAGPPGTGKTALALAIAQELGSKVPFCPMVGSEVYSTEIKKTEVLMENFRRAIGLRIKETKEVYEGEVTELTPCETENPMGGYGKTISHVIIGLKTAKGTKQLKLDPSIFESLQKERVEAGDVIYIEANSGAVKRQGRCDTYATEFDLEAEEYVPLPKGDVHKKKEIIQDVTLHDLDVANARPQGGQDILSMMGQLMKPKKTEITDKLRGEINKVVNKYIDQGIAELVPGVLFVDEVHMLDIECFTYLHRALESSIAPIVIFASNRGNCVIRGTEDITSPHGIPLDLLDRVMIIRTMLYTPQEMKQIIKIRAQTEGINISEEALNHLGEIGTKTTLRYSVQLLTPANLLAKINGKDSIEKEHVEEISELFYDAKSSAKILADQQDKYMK

| Compound | GI50 [1] [nM] | IC50 [2] [nM] |
| --- | --- | --- |
| CCOc1cc(F)c(Cl)cc1C(=O)NCC(C)(C)CC(=O)Nc1c([C@H](C)CN(C)C)n(C)n(-c2ccccc2)c1=O [Example 70, 5-Chloro-N-[4-({5-[(1R)-2-(dimethylamino)-1-methylethyl]-1-methyl-3-oxo-2-phenyl-2,3-dihydro-1H-pyrazol-4-yl}amino)-2,2-dimethyl-4-oxobutyl]-2-ethoxy-4-fluorobenzamide] | 160 | 84 |
| CCOc1ncc(Cl)cc1C(=O)NCC(C)(C)CC(=O)Nc1c(C(C)CN(C)C)n(C)n(-c2ccccc2)c1=O (stereo not drawn) [Example 71, 5-Chloro-N-[4-({5-[2-(dimethylamino)-1-methylethyl]-1-methyl-3-oxo-2-phenyl-2,3-dihydro-1H-pyrazol-4-yl}amino)-2,2-dimethyl-4-oxobutyl]-2-ethoxypyridine-3-carboxamide] | 420 | 90 |
| CCOc1ncc(Cl)cc1C(=O)NCC(C)(C)CC(=O)Nc1c([C@@H](C)CN(C)C)n(C)n(-c2ccccc2)c1=O [Example 72, 5-Chloro-N-[4-({5-[(1S)-2-(dimethylamino)-1-methylethyl]-1-methyl-3-oxo-2-phenyl-2,3-dihydro-1H-pyrazol-4-yl}amino)-2,2-dimethyl-4-oxobutyl]-2-ethoxypyridine-3-carboxamide] | 510 | 80 |
| CCOc1ncc(Br)cc1C(=O)NCC(C)(C)CC(=O)Nc1c(C(C)CN(C)C)n(C)n(-c2ccccc2)c1=O (stereo not drawn) [Example 74, 5-Bromo-N-[4-({5-[2-(dimethylamino)-1-methylethyl]-1-methyl-3-oxo-2-phenyl-2,3-dihydro-1H-pyrazol-4-yl}amino)-2,2-dimethyl-4-oxobutyl]-2-ethoxypyridine-3-carboxamide] | 470 | 180 |
| COCOc1cc(Cl)c(Cl)cc1C(=O)NCC(C)(C)CC(=O)Nc1c(C(C)CN(C)C)n(C)n(-c2ccccc2)c1=O (stereo not drawn) [Example 75, 4,5-Dichloro-N-[4-({5-[2-(dimethylamino)-1-methylethyl]-1-methyl-3-oxo-2-phenyl-2,3-dihydro-1H-pyrazol-4-yl}amino)-2,2-dimethyl-4-oxobutyl]-2-(methoxymethoxy)benzamide] | 270 | 99 |
| CCOc1ccc(Cl)cc1C(=O)NCC(C)(C)CC(=O)Nc1c(C(C)CNC)n(C)n(-c2ccccc2)c1=O (stereo not drawn) [Example 76, 5-Chloro-N-[2,2-dimethyl-4-({1-methyl-5-[1-methyl-2-(methylamino)ethyl]-3-oxo-2-phenyl-2,3-dihydro-1H-pyrazol-4-yl}amino)-4-oxobutyl]-2-ethoxybenzamide] | 590 | 68 |
| CCOc1ncc(Cl)cc1C(=O)NCC(C)(C)CC(=O)Nc1c(C(C)CNC)n(C)n(-c2ccccc2)c1=O (stereo not drawn) [Example 77, 5-Chloro-N-[2,2-dimethyl-4-({1-methyl-5-[1-methyl-2-(methylamino)ethyl]-3-oxo-2-phenyl-2,3-dihydro-1H-pyrazol-4-yl}amino)-4-oxobutyl]-2-ethoxypyridine-3-carboxamide] | 800 | 92 |
| CNCC(C)c1c(NC(=O)CC(C)(C)CNC(=O)c2cc(Cl)cc3cc(C)oc23)c(=O)n(-c2ccccc2)n1C (stereo not drawn) [Example 78, 5-Chloro-N-[2,2-dimethyl-4-({1-methyl-5-[1-methyl-2-(methylamino)ethyl]-3-oxo-2-phenyl-2,3-dihydro-1H-pyrazol-4-yl}amino)-4-oxobutyl]-2-methylbenzofuran-7-carboxamide] | 480 | 70 |
| CCOc1ccc(Cl)cc1C(=O)NCC(C)(C)CC(=O)Nc1c(C(CN(C)C)OC)n(C)n(-c2ccccc2)c1=O (stereo not drawn) [Example 79, 5-Chloro-N-[4-({5-[2-(dimethylamino)-1-methoxyethyl]-1-methyl-3-oxo-2-phenyl-2,3-dihydro-1H-pyrazol-4-yl}amino)-2,2-dimethyl-4-oxobutyl]-2-ethoxybenzamide] | 140 | 51 |
